Measured values from US8354436B2 (4SC Discovery GmbH, priority 2011, dated 2013).
Like-named read-outs stand apart in the source and are kept apart here.

How the values were obtained:
Assay type in all cases: cell-based
Conditions in all cases: 48 hours
[1] = system: PBMC from healthy human donors; experiment: T cell proliferation assay (PHA-stimulated human PBMC, BrdU ELISA)
In short: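 Proliferation was quantified by BrdU ELISA 48 hours after starting culture of 1×10⁵ human PBMC per well with test compound and 2 μg/ml phytohaemagglutinin. Cells came from healthy donors via Ficoll separation and were kept in RPMI1640 with 10% dialysed heat-inactivated FCS.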

[2] = system: IL-17FF; experiment: IL-17FF production by PHA-stimulated human PBMC (human IL-17F ELI-Pair)
In short: (§1)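 Inhibition of PHA-driven (2 μg/ml) cytokine release from human PBMC at 1×10^5 cells/well, 48 h compound exposure. IC50 from semilog titrations.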

[3] = system: IFN-γ; experiment: IFN-γ production by PHA-stimulated human PBMC (OptEIA human IFN-g ELISA)
In short: as §1

[4] = PHA-stimulated human PBMC, column D, read-out: IC50 (Tcell proliferation)
[5] = PHA-stimulated human PBMC, column B, read-out: IC50 (IL-17FF)
[6] = PHA-stimulated human PBMC, column C, read-out: IC50 (IFNγ)
[7] = human PBMC, 2 μg/ml PHA, read-out: D: IC50 (Tcell proliferation)
[8] = human PBMC, 2 μg/ml PHA, read-out: B: IC50 (IL-17FF)
[9] = human PBMC, 2 μg/ml PHA, read-out: C: IC50 (IFNγ)

## COC(=O)c1c(-c2c(F)cccc2Cl)noc1-c1cnn(-c2cc(Cl)cc(Cl)c2)c1C(F)(F)F [Example I-68, methyl 3-(2-chloro-6-fluorophenyl)-5-(1-(3,5-dichlorophenyl)-5-(trifluoromethyl)-1H-pyrazol-4-yl)isoxazole-4-carboxylate]
[1]; [4]
  IC50: 10 to 100 nM
[2]; [5]
  IC50: 10 to 100 nM
[3]; [6]
  IC50: 10 to 100 nM

## COC(=O)c1c(-c2ccc(Cl)cc2Cl)noc1-c1cnn(-c2cccc(Cl)c2)c1C(F)(F)F [IB-76, methyl 5-(1-(3-chlorophenyl)-5-(trifluoromethyl)-1H-pyrazol-4-yl)-3-(2,4-dichlorophenyl)isoxazole-4-carboxylate]
[1]; [4]
  IC50: 100 to 1000 nM
[2]; [5]
  IC50: 10 to 100 nM
[3]; [6]
  IC50: 100 to 1000 nM

## COC(=O)c1c(-c2cccc(F)c2)noc1-c1cnn(-c2cccc(F)c2)c1C(F)(F)F [Example I-106, methyl 3-(3-fluorophenyl)-5-(1-(3-fluorophenyl)-5-(trifluoromethyl)-1H-pyrazol-4-yl)isoxazole-4-carboxylate]
[1]; [4]
  IC50: 1000 to 10000 nM
[2]; [5]
  IC50: 1000 to 10000 nM
[3]; [6]
  IC50: 1000 to 10000 nM

## CC(=O)Nc1cccc(-n2ncc(-c3onc(-c4c(F)cccc4Cl)c3-c3nnc(C)s3)c2C(F)(F)F)c1 [Example B-12, N-(3-(4-(3-(2-chloro-6-fluorophenyl)-4-(5-methyl-1,3,4-thiadiazol-2-yl)isoxazol-5-yl)-5-(trifluoromethyl)-1H-pyrazol-1-yl)phenyl)acetamide]
[1]; [7]
  IC50: 1000 to 10000 nM
[2]; [8]
  IC50: 1000 to 10000 nM
[3]; [9]
  IC50: 100 to 1000 nM

## CCOC(=O)c1c(-c2c(Cl)cncc2Cl)noc1-c1cnn(-c2cccnc2)c1C(F)(F)F [IB-12, ethyl 3-(3,5-dichloropyridin-4-yl)-5-(1-(pyridin-3-yl)-5-(trifluoromethyl)-1H-pyrazol-4-yl)isoxazole-4-carboxylate]
[1]; [4]
  IC50: 100 to 1000 nM
[2]; [5]
  IC50: 10 to 100 nM
[3]; [6]
  IC50: 100 to 1000 nM

## CNC(=O)c1c(-c2c(F)cccc2Cl)noc1-c1cnn(-c2cccnc2)c1C(F)(F)F [IB-55, 3-(2-chloro-6-fluorophenyl)-N-methyl-5-(1-(pyridin-3-yl)-5-(trifluoromethyl)-1H-pyrazol-4-yl)isoxazole-4-carboxamide]
[1]; [4]
  IC50: 1000 to 10000 nM
[2]; [5]
  IC50: 1000 to 10000 nM
[3]; [6]
  IC50: 1000 to 10000 nM

## Fc1ccccc1-n1ncc(-c2onc(-c3c(F)cccc3Cl)c2-c2cnco2)c1C(F)(F)F [Example B-28, 3-(2-chloro-6-fluorophenyl)-5-(1-(2-fluorophenyl)-5-(trifluoromethyl)-1H-pyrazol-4-yl)-4-(oxazol-5-yl)isoxazole]
[1]; [7]
  IC50: 100 to 1000 nM
[2]; [8]
  IC50: 100 to 1000 nM
[3]; [9]
  IC50: 100 to 1000 nM

## O=C(c1c(-c2c(F)cccc2Cl)noc1-c1cnn(-c2ccncc2)c1C(F)(F)F)N1CCCO1 [IB-57, (3-(2-chloro-6-fluorophenyl)-5-(1-(pyridin-4-yl)-5-(trifluoromethyl)-1H-pyrazol-4-yl)isoxazol-4-yl)(isoxazolidin-2-yl)methanone]
[1]; [4]
  IC50: 1000 to 10000 nM
[2]; [5]
  IC50: 1000 to 10000 nM
[3]; [6]
  IC50: 1000 to 10000 nM

## CNC(=S)c1c(-c2c(F)cccc2Cl)noc1-c1cnn(-c2cccc(F)c2)c1C(F)(F)F [Example I-122, 3-(2-chloro-6-fluorophenyl)-5-(1-(3-fluorophenyl)-5-(trifluoromethyl)-1H-pyrazol-4-yl)-N-methylisoxazole-4-carbothioamide]
[1]; [4]
  IC50: 100 to 1000 nM
[2]; [5]
  IC50: 100 to 1000 nM
[3]; [6]
  IC50: 100 to 1000 nM

## CNC(=O)c1c(-c2c(F)cccc2Cl)noc1-c1cnn(-c2ccccc2)c1C(F)(F)F [Example I-59, 3-(2-chloro-6-fluorophenyl)-N-methyl-5-(1-phenyl-5-(trifluoromethyl)-1H-pyrazol-4-yl)isoxazole-4-carboxamide]
[1]; [4]
  IC50: 100 to 1000 nM
[2]; [5]
  IC50: 100 to 1000 nM
[3]; [6]
  IC50: 100 to 1000 nM

## CSC(=O)c1c(-c2c(F)cccc2Cl)noc1-c1cnn(-c2ccccc2F)c1C(F)(F)F [Example I-130, S-methyl 3-(2-chloro-6-fluorophenyl)-5-(1-(2-fluorophenyl)-5-(trifluoromethyl)-1H-pyrazol-4-yl)isoxazole-4-carbothioate]
[1]; [4]
  IC50: < 10 nM
[2]; [5]
  IC50: < 10 nM
[3]; [6]
  IC50: < 10 nM

## COC(=O)c1c(-c2c(F)cccc2Cl)noc1-c1cnn(-c2c(F)c(F)cc(F)c2F)c1C(F)(F)F [Example I-47, methyl 3-(2-chloro-6-fluorophenyl)-5-(1-(2,3,5,6-tetrafluorophenyl)-5-(trifluoromethyl)-1H-pyrazol-4-yl)isoxale-4-carboxylate]
[1]; [4]
  IC50: 100 to 1000 nM
[2]; [5]
  IC50: 100 to 1000 nM
[3]; [6]
  IC50: 100 to 1000 nM

## CCOC(=O)c1c(-c2c(F)cccc2Cl)noc1-c1cnn(CCOC)c1C(F)(F)F [IB-2, ethyl 3-(2-chloro-6-fluorophenyl)-5-(l-(2-methoxyethyl)-5-(trifluoromethyl)-1H-pyrazol-4-yl)isoxazole-4-carboxylate]
[1]; [4]
  IC50: 1000 to 10000 nM
[2]; [5]
  IC50: 100 to 1000 nM
[3]; [6]
  IC50: 100 to 1000 nM

## COC(=O)c1c(-c2c(F)cccc2Cl)noc1-c1cnn(-c2ccccc2Cl)c1C(F)(F)F [IB-20, methyl 3-(2-chloro-6-fluorophenyl)-5-(1-(2-chlorophenyl)-5-(trifluoromethyl)-1H-pyrazol-4-yl)isoxazole-4-carboxylate]
[1]; [4]
  IC50: 1000 to 10000 nM
[2]; [5]
  IC50: 1000 to 10000 nM
[3]; [6]
  IC50: 1000 to 10000 nM

## COC(=O)c1c(-c2c(F)cccc2Cl)noc1-c1cnn(-c2cccc(NC(C)=O)c2)c1C(F)(F)F [IB-89, 5-(1-(3-acetamidophenyl)-5-(trifluoromethyl)-1H-pyrazol-4-yl)-3-(2-chloro-6-fluorophenyl)isoxazole-4-carboxylate]
[1]; [4]
  IC50: 100 to 1000 nM
[2]; [5]
  IC50: 10 to 100 nM
[3]; [6]
  IC50: 10 to 100 nM

## CCOC(=O)c1c(-c2c(F)cccc2Cl)noc1-c1cnn(-c2cccc(S(N)(=O)=O)c2)c1C(F)(F)F [IB-43, ethyl 3-(2-chloro-6-fluorophenyl)-5-(1-(3-sulfamoylphenyl)-5-(trifluoromethyl)-1H-pyrazol-4-yl)-isoxazole-4-carboxylate]
[1]; [4]
  IC50: 1000 to 10000 nM
[2]; [5]
  IC50: 100 to 1000 nM
[3]; [6]
  IC50: 1000 to 10000 nM

## COC(=O)c1c(-c2c(F)cccc2Cl)noc1-c1cnn(-c2c(Cl)cccc2Cl)c1C(F)(F)F [Example I-70, methyl 3-(2-chloro-6-fluorophenyl)-5-(1-(2,6-dichlorophenyl)-5-(trifluoromethyl)-1H-pyrazol-4-yl)isoxazole-4-carboxylate]
[1]; [4]
  IC50: 100 to 1000 nM
[2]; [5]
  IC50: 100 to 1000 nM
[3]; [6]
  IC50: 100 to 1000 nM

## COC(=O)c1c(-c2c(F)cccc2Cl)noc1-c1cnn(-c2cc(C)nc(C)n2)c1C(F)(F)F [Example I-119, methyl 3-(2-chloro-6-fluorophenyl)-5-(1-(2,6-dimethylpyrimidin-4-yl)-5-(trifluoromethyl)-1H-pyrazol-4-yl)isoxazole-4-carboxylate]
[1]; [4]
  IC50: 100 to 1000 nM
[2]; [5]
  IC50: 100 to 1000 nM
[3]; [6]
  IC50: 100 to 1000 nM

## COC(=O)c1c(-c2c(Cl)cccc2Cl)noc1-c1cnn(-c2cccc(Cl)c2)c1C(F)(F)F [IB-75, methyl 5-(1-(3-chlorophenyl)-5-(trifluoromethyl)-1H-pyrazol-4-yl)-3-(2,6-dichlorophenyl)isoxazole-4-carboxylate]
[1]; [4]
  IC50: < 10 nM
[2]; [5]
  IC50: < 10 nM
[3]; [6]
  IC50: < 10 nM

## Nc1c(-c2c(F)cccc2Cl)noc1-c1cnn(-c2cccc(Cl)c2)c1C(F)(F)F [IB-36, 3-(2-chloro-6-fluorophenyl)-5-(1-(3-chlorophenyl)-5-(trifluoromethyl)-1H-pyrazol-4-yl)isoxazol-4-amine]
[1]; [4]
  IC50: 100 to 1000 nM
[2]; [5]
  IC50: 100 to 1000 nM
[3]; [6]
  IC50: 100 to 1000 nM

## CCOC(=O)c1c(-c2ccncc2F)noc1-c1cnn(-c2ccccc2Cl)c1C(F)(F)F [IB-13, ethyl 5-(1-(2-chlorophenyl)-5-(trifluoromethyl)-1H-pyrazol-4-yl)-3-(3-fluoropyridin-4-yl)isoxazole-4-carboxylate]
[1]; [4]
  IC50: 10 to 100 nM
[2]; [5]
  IC50: 10 to 100 nM
[3]; [6]
  IC50: 10 to 100 nM

## CC(=O)Nc1cccc(-n2ncc(-c3onc(-c4c(F)cccc4Cl)c3C(=O)OC(C)C)c2C(F)(F)F)c1 [IB-78, isopropyl 5-(1-(3-acetamidophenyl)-5-(trifluoromethyl)-1H-pyrazol-4-yl)-3-(2-chloro-6-fluorophenyl)isoxazole-4-carboxylate]
[1]; [4]
  IC50: 100 to 1000 nM
[2]; [5]
  IC50: 10 to 100 nM
[3]; [6]
  IC50: 100 to 1000 nM

## CO/C(=N\c1c(-c2c(F)cccc2Cl)noc1-c1cnn(-c2cccc(F)c2)c1C(F)(F)F)C(F)(F)F [Example I-136, (Z)-methyl N-(3-(2-chloro-6-fluorophenyl)-5-(1-(3-fluorophenyl)-5-(trifluoromethyl)-1H-pyrazol-4-yl)isoxazol-4-yl)-2,2,2-trifluoroacetimidate]
[1]; [4]
  IC50: 100 to 1000 nM
[2]; [5]
  IC50: 100 to 1000 nM
[3]; [6]
  IC50: 10 to 100 nM

## CCOC(=O)c1csc(-c2c(-c3c(F)cccc3Cl)noc2-c2cnn(-c3cccc(F)c3)c2C(F)(F)F)n1 [Example B-1, ethyl 2-(3-(2-chloro-6-fluorophenyl)-5-(1-(3-fluorophenyl)-5-(trifluoromethyl)-1H-pyrazol-4-yl)isoxazol-4-yl)thiazole-4-carboxylate]
[1]; [7]
  IC50: 100 to 1000 nM
[2]; [8]
  IC50: 100 to 1000 nM
[3]; [9]
  IC50: 100 to 1000 nM

## Cc1nnc(-c2c(-c3c(F)cccc3Cl)noc2-c2cnn(-c3ccccc3Cl)c2C(F)(F)F)o1 [Example B-18, 2-(3-(2-chloro-6-fluorophenyl)-5-(1-(2-chlorophenyl)-5-(trifluoromethyl)-1H-pyrazol-4-yl)isoxazol-4-yl)-5-methyl-1,3,4-oxadiazole]
[1]; [7]
  IC50: 1000 to 10000 nM
[2]; [8]
  IC50: 1000 to 10000 nM
[3]; [9]
  IC50: 1000 to 10000 nM
